Data on nine compounds can be found in ChEMBL document CHEMBL1158048, “19-Nor- and 18,20-epoxy-cardenolides from the leaves of Calotropis gigantea” (J Nat Prod, 2006).

The nature of assay [1]: Cytotoxicity against human BC cells by SRB assay. The assay is classed as functional, cell-based. Background: Sulforhodamine B stains cellular protein and so reports cell mass.
Assay [2] has as its system NCI-H187. Briefly: Cytotoxicity against human NCI-H187 cells by SRB assay. The class given is functional, cell-based.
In assay [3] the test system is KB. Description: Cytotoxicity against human KB cells by SRB assay. The class given is functional, cell-based.
Assay [4] deals with KB. Briefly: Cytotoxicity against human KB cells at 20 ug/ml by SRB assay. The class given is functional, cell-based.
Assay [5] has as its system NCI-H187. Briefly: Cytotoxicity against human NCI-H187 cells at 20 ug/ml by SRB assay. The class given is functional, cell-based.
Another assay concerns BC. Description: Cytotoxicity against human BC cells at 20 ug/ml by SRB assay. The assay is classed as functional, cell-based.
The test system of another assay is Plasmodium falciparum. Briefly: Antimalarial activity after 48 hrs against multidrug-resistant Plasmodium falciparum K1. The class given is functional, organism-based.

pIC50: −log10 of the molar value. Activity calls are given as the source filed them. The rule behind the calls is not given here.

The pIC50 is the IC50 on a negative log10 scale, so that one unit is a factor of ten. As to `C[C@@H]1C[C@H](O)[C@]2(O)O[C@@H]3C[C@@]4(C=O)[C@@H](CC[C@@H]5[C@@H]4CC[C@]4(C)[C@@H](C6=CC(=O)OC6)C[C@@H](O)[C@]54O)C[C@H]3O[C@@H]2O1`, the figures for the negative-log IC50 (pIC50) (in assay [1]; in the assay on NCI-H187 [2]; in the assay on KB [3]) were 6.26, 5.48 and 6.22, respectively.

In the case of `C[C@@H]1C[C@H](O)[C@]2(O)O[C@@H]3C[C@@]4(C=O)[C@@H](CC[C@@H]5[C@@H]4CC[C@]46CO[C@]7(COC(=O)C7)[C@H]4CC[C@]56O)C[C@H]3O[C@@H]2O1`, the pIC50 in assay [1] was 5.66; with NCI-H187 [2] it was 5.44; in the assay with KB [3] it was 5.89.

Take `COC(=O)[C@@]1(O)C[C@@H](C)O[C@H]1O[C@@H]1C[C@@H]2CC[C@@H]3[C@H](CC[C@]4(C)[C@@H](C5=CC(=O)OC5)CC[C@]34O)[C@@]2(C(=O)O)C[C@H]1O`: the result in the assay on KB [4], in the assay on NCI-H187 [5] and in the assay with BC was inactive.

In the case of `COC(=O)[C@@]1(O)C[C@@H](C)O[C@H]1O[C@@H]1C[C@@H]2CC[C@@H]3[C@H](CC[C@]4(C)[C@@H](C5=CC(=O)OC5)CC[C@]34O)[C@@]2(C=O)C[C@H]1O` [CALACTINICACID METHYL ESTER], the pIC50 in assay [1] was 5.25; in the assay with NCI-H187 [2], 4.84; with KB [3] it was 5.43.

For `C[C@@H]1C[C@@H](O)[C@]2(O)O[C@@H]3C[C@@]4(C=O)[C@@H](CC[C@@H]5[C@@H]4CC[C@]4(C)[C@@H](C6=CC(=O)OC6)CC[C@]54O)C[C@H]3O[C@@H]2O1` [CALACTIN], the pIC50 in assay [1] is 7.68; with NCI-H187 [2] it was 6.46; in the assay with KB [3] it was 7.38. Further, the result with Plasmodium falciparum was inactive.

With `C[C@@H]1C[C@H](O)[C@]2(O)O[C@@H]3C[C@@]4(C=O)[C@@H](CC[C@@H]5[C@@H]4CC[C@]4(C)[C@@H](C6=CC(=O)OC6)CC[C@]54O)C[C@H]3O[C@@H]2O1` [CALOTROPIN], the pIC50 in assay [1] was 7.38; in the assay with NCI-H187 [2], 6.33; in the assay with KB [3], 7.21. Besides, the outcome in the assay with Plasmodium falciparum was inactive.

For the compound `C[C@]12CC[C@H](O)C[C@H]1CC[C@@H]1[C@@H]2CC[C@]2(C)[C@@H](C3=CC(=O)OC3)CC[C@]12O` [DIGITOXIGENIN], the pIC50 in assay [1] was 5.05; in the assay with NCI-H187 [2], 5.01; in the assay on KB [3] it was 5.02. Moreover, in the assay with Plasmodium falciparum, the result was inactive.

Regarding `COc1cccc2c1C(=O)c1c(O)c3c(c(O)c1C2=O)C[C@@](O)(C(=O)CO)C[C@@H]3O[C@H]1C[C@H](N)[C@H](O)[C@H](C)O1` [DOXORUBICIN], the pIC50 in assay [1] was 6.54; in the assay on NCI-H187 [2] it was 7.39; in the assay on KB [3] it was 6.66.

`Cc1c2ccncc2c(C)c2c1[nH]c1ccccc12` [ELLIPTECINE]: the results for the pIC50 (in assay [1]; in the assay with NCI-H187 [2]; in the assay with KB [3]) were 6.17, 5.65 and 6.09, respectively.
